US12569482B2, “Methods and compositions for treating idiopathic pulmonary fibrosis” (priority 2018, dated 2026)
“Also recorded” adds a separate entry of the source. Where two headings read alike, the source gives them in different places.

Columns and labels:
[1] = parameters: species or system C57BL/6 mice; settings: C57BL/6, mouse, in vivo, 2 h
Description: (§1) On Day 5, the mice with bleomycin treatment were divided into three groups at random (referred to as Group 2-4, n=10), and orally administered with vehicle (0.5% Methyl cellulose), nintedanib (Kangmanlin Co. Ltd., prepared in 0.5% Methyl cellulose with a final concentration of 6.0 mg/mL) and fluconazole (Kangmanlin Co. Ltd., prepared in 0.5% Methyl cellulose with a final concentration of 7.0 mg/mL) at daily doses of 10 mL/kg, 60 mg/kg and 70 mg/kg, respectively. The mice in the Control group was administered with vehicle (0.5% Methyl cellulose) at a daily dose of 10 mL/kg. Mice body weights were measured and recorded on Day 1, 5, 12, 19 and 25.
Two hours post drug administration on Day 25, all animals were anaesthetized with pentobarbital (i.p., 65 mg/kg). Blood samples were collected from orbital vein, put in tubes pre-coated with EDTA-K2 (KANG JIAN, Cat #KJ202), centrifuged at 4000×g for 10 minutes at 4° C. and then stored at −80° C. for determination of plasma drug levels. Then, the trachea was exposed, and bronchoalveolar lavage fluid (BALF) was collected from each mouse by injecting 0.3 mL of saline into trachea close to the larynx for three times. After BALF collection, mice were perfused with saline, and all four lung lobes were collected from each mouse, fixed in 10% NBF solution, embedded in paraffin and cut into 5 μm-thick sections. […]

[2] = test system: bleomycin-induced lung fibrosis; assay: Bleomycin induced IPF mouse model, Example 1 (oral nintedanib or fluconazole); type: in vivo, C57BL/6 mice; settings: nintedanib 60 mg/kg
Description: Forty male C57BL/6 mice (Nanjing Biomedical Research Institute of Nanjing University) were randomly divided into two groups on Day 1, 10 animals for one group (referred to as Control group or Group 1) and 30 for the other. The animals in the Control group were administered intratracheally with PBS at a dose of 2 mL/kg while the others were administered intratracheally with bleomycin (Cat #HY-17565, MCE) at a dose of 0.66 mg/kg.
as §1
Two hours post drug administration on Day 25, all animals were anaesthetized with pentobarbital (i.p., 65 mg/kg). Blood samples were collected from orbital vein, put in tubes pre-coated with EDTA-K2 (KANG JIAN, Cat #KJ202), centrifuged at 4000×g for 10 minutes at 4° C. and then stored at −80° C. for determination of plasma drug levels. Then, the trachea was exposed, and bronchoalveolar lavage fluid (BALF) was collected from each mouse by injecting 0.3 mL of saline into trachea close to the larynx for three times. After BALF collection, mice were perfused with saline, and all four lung lobes were collected from each mouse, fixed in 10% NBF solution, embedded in paraffin and cut into 5 μm-thick sections. The sections were de-paraffinized with xylene and ethanol and subject to Haematoxylin-Eosin, Masson Trichrome and α-SMA IHC staining.
The bronchoalveolar lavage fluid of 20 μL was mixed with 20 μL of trypan blue to determine the cell number. Then, the cells in the BALF were concentrated using a Cytospinat at 1,000 rpm for 5 minutes, smeared on slides and then stained with Diff-Quik stain. Cell types (alveolar macrophages, neutrophils, or lymphocytes) were determined by counting at least 200 cells using a standard hemocytometer. The rest BALFs were centrifuged and supernatants were collected and stored at −80° C. for soluble collagen analysis.
The Haematoxylin-Eosin staining was used to identify and quantitate the inflammatory cells in the tissues, and the total inflammation area was calculated using the AperioScanScope software.
The sections with Masson Trichrome staining were scored for pulmonary fibrosis according to the modified Ashcroft fibrosis rating criteria in Table 1 below. Each lung lobe was divided into 4 parts according to the distance from the main bronchus, i.e., the upper, upper middle, lower middle and lower parts, which were scored separately and averaged later.
α-SMA is a well characterized marker in fibrosis. Immunohistochemistry staining of α-SMA is often used to characterize and quantitate the tissue fibrosis. Increased staining of α-SMA often reflects accumulation of collagen-producing myofibroblasts. Before α-SMA IHC staining, the de-paraffinized sections were treated with citrate antigen retrieval solution (0.01 N citrate buffer, pH 6.0) at 100° C. for 10 minutes, and then incubated with rabbit polyclonal anti-α-SMA (1:400, ab5694, Abcam) for 1 hour followed by goat anti-rabbit HRP (K4003, Dako). DAB substrate kit (DAB0031, Maixin, Shanghai) was used for chromogenic staining. All sections were further counter-stained with hematoxylin. […] α-SMA staining areas were calculated using the AperioImageScope program.
Statistical analysis was performed using student's T-test, one-way or two-way ANOVA followed by post-hoc Dunnett's test if significant. […] The difference was considered significant when p<0.05. *p<0.05, **p<0.01, ***[…].

[3] = Drug concentrations in plasma and lung tissues after 5 days of oral or inhalation dosing; type: in vivo, healthy male mice; settings: male, mouse; for Kp at 2 h: lung tissue and plasma, read-out: levels in lung tissues relative to plasma; for concentration at 2 h: q.d., 5 days, two hours after last dose
Description: In a separate experiment, three groups of healthy male mice were treated with itraconazole for 5 consecutive days. Animals in Group A were orally administered with itraconazole in DMSO:PEG400 (1:9, v/v) at a daily dose of 15 mg/kg, while mice in Group B and C were subject to 3-min inhalation treatment of itraconazole of 15 mg/mL and 50 mg/mL, respectively. Two hours after the last dose, plasma samples and lung tissues were collected as described above. These samples were sent to an independent bioanalytical service lab to determine the levels of itraconazole, and results were summarized in Table 3.

[4] = cited from earlier work
[5] = Plasma drug levels, Example 2; type: in vivo, C57BL/6 mice; settings: C57BL/6, mouse
Description: On Day 5, the mice with bleomycin treatment were divided into four groups at random (referred to as Group 2-5, n=10), and orally administered with vehicle (DMSO: PEG400=1:9, V/V), itraconazole (Kangmanlin Co. Ltd. prepared in DMSO/PEG400 with a final concentration of 1.5 mg/mL), nintedanib (Kangmanlin Co. Ltd., prepared in DMSO/PEG400 with a final concentration of 6.0 mg/mL), and itraconazole+nintedanib (prepared in DMSO/PEG400 with final concentrations of 1.5 mg/mL and 6.0 mg/mL) at daily doses of 10 mL/kg, 15 mg/kg, 60 mg/kg and 15+60 mg/kg, respectively. The mice in the Control group was administered with vehicle (DMSO/PEG400) at a daily dose of 10 mL/kg. Mice body weights were measured and recorded on Day 1, 5, 12, 19 and 21.
Two hours post drug administration on Day 21, all animals were anaesthetized with pentobarbital (i.p., 60 mg/kg). Blood sample, bronchoalveolar lavage fluid (BALF) and lung lobes were collected from each mouse and then processed following the protocols in Example 1.

[6] = Plasma exposure levels in the bleomycin-induced lung fibrosis mouse study; type: in vivo
Excerpt: Because the relevancy to human efficacy in bleomycin-induced lung fibrosis mouse model, though well established in preclinical studies (Moeller, 2008), has not been established, a new version of the bleomycin-induced lung fibrosis mouse study protocol was designed, with marketed anti-fibrotic drugs, namely pirfenidone and nintedanib, as positive controls.

[7] = mice, cited from earlier work
[8] = cited from earlier work; remark: listed apart in the source
[9] = test system: sol elastase activity of CF sputum; settings: unprocessed CF sputum directly treated; cited from earlier work

OC(Cn1cncn1)(Cn1cncn1)c1ccc(F)cc1F [fluconazole]
plasma level relative to that of itraconazole at 15 mg/kg [1]: over 62 fold
reduction of lung inflammation area ([2]; Haematoxylin-Eosin staining, fluconazole 70 mg/kg p.o. daily): not observed
reduction of modified Ashcroft score ([2]; Masson Trichrome staining, fluconazole 70 mg/kg p.o. daily): not observed
anti-IPF activities / fibrosis related endpoint measurements (overall) ([2]; fluconazole 70 mg/kg daily dose): did not show detectable changes; also recorded: failed to show any significant anti-IPF activities
BALF collagen levels ([2]; oral daily Day 5-25, fluconazole 70 mg/kg, vs bleomycin + vehicle): No collagen level reduction
reduction of α-SMA staining area ([2]; α-SMA IHC, fluconazole 70 mg/kg p.o. daily): not observed

CCC(C)n1ncn(-c2ccc(N3CCN(c4ccc(OCC5COC(Cn6cncn6)(c6ccc(Cl)cc6Cl)O5)cc4)CC3)cc2)c1=O (centres unmarked) [itraconazole]
Kp at 2 h ([3]; inhaled, 5 days of inhalation at 15 mg/mL for 3 min): ~7.3
Kp at 2 h ([3]; inhaled, inhalation dose of 50 mg/mL for 3 min): 8.3
Kp at 2 h ([3]; 5 days of oral dosing at 15 mg/kg): ~1.3
concentration at 2 h ([3]; lung tissue, inhaled, Group B: i.h., 15 mg/mL for 3 min, read-out: Lung Tissue Concentrations): 590 ng/mL
concentration at 2 h ([3]; lung tissue, inhaled, Group C: i.h., 50 mg/mL for 3 min, read-out: Lung Tissue Concentrations): 1400 ng/mL
concentration at 2 h ([3]; lung tissue, po, Group A: p.o., 15 mg/kg, read-out: Lung Tissue Concentrations): 172 ng/mL
concentration at 2 h ([3]; plasma, inhaled, Group B: i.h., 15 mg/mL for 3 min, read-out: Plasma Concentrations): 80.9 ng/mL
concentration at 2 h ([3]; plasma, inhaled, Group C: i.h., 50 mg/mL for 3 min, read-out: Plasma Concentrations): 168 ng/mL
concentration at 2 h ([3]; plasma, po, Group A: p.o., 15 mg/kg, read-out: Plasma Concentrations): 133 ng/mL
solubility ([4]; in 0.1N HCl): 4 to 6 µg/mL
solubility ([4]; in water): 0.001 to 0.004 µg/mL
concentration at 2 h ([5]; oral, Day 21, itraconazole 15 mg/kg, nintedanib 60 mg/kg p.o. daily, read-out: two-hour post dosing plasma level, single agent): 700 ng/mL
concentration at 2 h ([5]; po, Day 21, 15+60 mg/kg p.o. daily, read-out: two-hour post dosing plasma drug level, itraconazole and nintedanib combined in administration): 518 ng/mL
plasma exposure level ([6]; itraconazole alone at 7.5 mg/kg): 394 ± 66 ng/mL
plasma exposure level ([6]; itraconazole alone at 15 mg/kg): 899 ± 192 ng/mL
serum levels relative to pulmonary concentrations ([7]; aerosolized dose): 25 to 50 times lower
time to effective anti-fungal pulmonary concentrations ([7]; after completion of nebulization): ≤ 60 min
Cmax at steady state ([8]; 200 mg (PO/BID)): 2000 ng/mL
Cmax at steady state ([8]; 200 mg (PO/QD)): 1100 ng/mL
time to steady state plasma levels ([8]; post oral administration, multiple dosing): around 15 days
time at which peak plasma levels are reached ([8]; post oral dose): 2 to 5 h

DNase
increase of sol elastase activity [9]: 190%

B1: reduced rhTrx: stable reduced form of recombinant human thioredoxin (protein, UniProt P10599 2-105, looked up)
Thioredoxin: VKQIESKTAFQEALDAAGDKLVVVDFSATWCGPCKMIKPFFHSLSEKYSNVIFLEVDVDDCQDVASECEVKCMPTFQFFKKGQKVGEFSGANKEKLEATINELV
modifications: reduced form
increase of sol elastase activity [9]: 60%
